Assay results published in publication PMC11381475, “Biopharmaceutical profiling of anti-infective sanggenons from Morus alba root bark for inhalation administration” (International Journal of Pharmaceutics: X, 2024).
In brackets after ≈: the same amount, converted by molar mass. Read-outs that look alike come from different tables or passages of the source.

Columns and labels:
Calu-3 monolayer [1] = tested on: Calu-3 monolayer
SARS-CoV-2 = tested on: SARS-CoV-2; design: method as in Wasilewicz et al., 2023; details: reported to be based on inhibition of the viral main protease, ref Wasilewicz et al., 2023; read-out: anti-SARS-CoV-2 activity IC50; cited from earlier work
[2] = Calu-3 cell viability, MTT assay; details: human
[3] = potentiometric logP, water-octanol (SiriusT3); format: physicochemical; details: octanol/water, experimental, mean ± S.D., n = 3, read-out: logP
Protocol: LogP (partition coefficient) evaluation was performed via SiriusT3. The potentiometric logP measurement relies on assessing the partition profile of the test substance within a two-phase water-octanol solvent system. Changes in the relative volume ratio of octanol to water lead to shifts in the apparent pKa, resulting from the partitioning between non-ionised and ionised forms. LogP values were then estimated based on these assessments.

Calu-3 cells = assay: Calu-3 cell uptake, FIA-TOFMS; format: in vitro ADME, human; details: 50 µg/mL; for Concentration [pg/µL] 1 in cell extract / Normalized concentration [pg/cell] 1: replicate 1; for Concentration [pg/µL] 2 in cell extract / Normalized concentration [pg/cell] 2: replicate 2; for Concentration [pg/µL] 3 in cell extract / Normalized concentration [pg/cell] 3: replicate 3
Protocol: At 4, 12, and 24 h after addition, cell extracts were generated in triplicates. To that end, the medium was aspirated from the respective wells, and cells were washed with pre-warmed ammonium carbonate solution (75 mM, pH 7.4, 37 °C). Immediately after removal of the wash solvent, 300 μL cold extraction solvent (40:40:20 acetonitrile:methanol:water, −20 °C) was added per well to lyse cells in situ and stop the enzymatic activity. The bottom of each well was subsequently scraped and the cell extracts were transferred to 96-well storage plates and stored at −80 °C until analysis. […] Quantification of SGC and SGD was performed using flow-injection time-of-flight mass spectrometry (FIA-TOFMS) in negative ion mode as described previously ([Fuhrer et al., 2011]). SGC and SGD signals were identified by matching accurate masses (for both [M-H]- at 707.2127 m/z). To account for possible influences of the complex matrix in the cell extract samples, a matrix-matched series of calibration samples were prepared, in which increasing concentrations of SGC were spiked into extracts of cells that had not previously been treated with either SGC or SGD. The calibration samples were injected alongside the cell extract samples and used to establish a calibration function using linear regression. The ion intensities measured were converted into SGC and SGD concentrations and normalized by the cell number in each sample, which was determined at each time point in separate cell cultures using trypan blue staining and cell counting in a Thermo Fisher Countess II Automated cell counter after trypsin-mediated cell detachment. This procedure eventually yielded estimates of SGC and SGD contents in pg/cell.

Calu-3 monolayer [4] = tested on: Calu-3 monolayer; remark: listed apart in the source
[5] = UV-metric pKa measurement (SiriusT3); format: physicochemical; details: experimental, SiriusT3, 25 °C, mean ± S.D.
Protocol: Experimental pKa (−log10 of the acid dissociation equilibrium constant) values of SGC and SGD were evaluated using the UV-metric pKa measurement method of the SiriusT3 automated titrator instrument and the corresponding software SiriusT3Control and SiriusT3Refine (Pion Inc., Billerica, USA). The SiriusT3 apparatus uses a deuterium lamp to determine the UV/Vis absorbance spectrum of the test solutions at each pH point. The standard aqueous UV-metric pKa measurement protocol was conducted according to manufacturer instructions. […] This was mixed with 25 μL phosphate buffer (14.7 mM K2HPO4 and 0.15 M KCl in MilliQ water) and diluted with 1.5 mL ionic strength-adjusted water (ISA water ≡ 0.15 M KCl in MilliQ water). The subsequent acid/base titration and measurement of UV absorbance was automatically performed by the SiriusT3 at 25.0 ± 0.5 °C. […] Turbidity was monitored by a turbidity sensor to ensure the absence of precipitation of the test compounds during the experiment, since accurate pKa measurements are limited to fully dissolved substances. In case turbidity occurred, individual titrations were not used for further analysis, resulting in a total of 11 analysable titrations across the 5 replicate samples for both SGC and SGD.

[6] = pH-dependent thermodynamic solubility, miniaturized shake-flask method, UPLC-PDA; details: for solubility thermodynamic at 24 h: 24 °C, thermodynamic from solid
[7] = tested on: lung epithelial monolayers; details: cited from earlier work
Calu-3 monolayer [8] = tested on: Calu-3 monolayer; remark: listed apart in the source

Molecule: CC(C)=CC[C@]12Oc3cc(O)c([C@H]4C=C(C)C[C@H](c5ccc(O)cc5O)[C@H]4C(=O)c4ccc(O)cc4O)c(O)c3C(=O)[C@@]1(O)Oc1cc(O)ccc12 [SGC, sanggenon C]
- change in TEER during permeability study, B-A direction (Calu-3 monolayer [1]): a decrease in TEER values was also observed
- IC50 (SARS-CoV-2): 7.2 µM
- CC50 at 24 h [2]: 47.8 µg/mL (≈ 67.4 µM)
- logP [3]: 3 to 3.5
- intracellular content, Mean [pg/cell] (Calu-3 cells; 4 h): 2.0 ± 0.1 pg/cell
- Concentration [pg/µL] 1 in cell extract (Calu-3 cells; 4 h): 4284 pg/µL
- Normalized concentration [pg/cell] 1 (Calu-3 cells; 4 h): 2.09 pg/cell
- Concentration [pg/µL] 2 in cell extract (Calu-3 cells; 4 h): 3851 pg/µL
- Normalized concentration [pg/cell] 2 (Calu-3 cells; 4 h): 1.88 pg/cell
- Concentration [pg/µL] 3 in cell extract (Calu-3 cells; 4 h): 3902 pg/µL
- Normalized concentration [pg/cell] 3 (Calu-3 cells; 4 h): 1.90 pg/cell
- intracellular content, Mean [pg/cell] (Calu-3 cells; 4 h, listed as Sanggenon C): 1.96 pg/cell
- intracellular content, Mean [pg/cell] (Calu-3 cells; 12 h): 5.54 pg/cell
- Concentration [pg/µL] 1 in cell extract (Calu-3 cells; 12 h): 13620 pg/µL
- Normalized concentration [pg/cell] 1 (Calu-3 cells; 12 h): 5.77 pg/cell
- Concentration [pg/µL] 2 in cell extract (Calu-3 cells; 12 h): 13397 pg/µL
- Normalized concentration [pg/cell] 2 (Calu-3 cells; 12 h): 5.67 pg/cell
- Concentration [pg/µL] 3 in cell extract (Calu-3 cells; 12 h): 12248 pg/µL
- Normalized concentration [pg/cell] 3 (Calu-3 cells; 12 h): 5.19 pg/cell
- intracellular content, Mean [pg/cell] (Calu-3 cells; 24 h): 8.1 ± 0.3 pg/cell
- Concentration [pg/µL] 1 in cell extract (Calu-3 cells; 24 h): 17926 pg/µL
- Normalized concentration [pg/cell] 1 (Calu-3 cells; 24 h): 8.34 pg/cell
- Concentration [pg/µL] 2 in cell extract (Calu-3 cells; 24 h): 16862 pg/µL
- Normalized concentration [pg/cell] 2 (Calu-3 cells; 24 h): 7.85 pg/cell
- Concentration [pg/µL] 3 in cell extract (Calu-3 cells; 24 h): 17411 pg/µL
- Normalized concentration [pg/cell] 3 (Calu-3 cells; 24 h): 8.11 pg/cell
- intracellular content, Mean [pg/cell] (Calu-3 cells; 24 h, listed as Sanggenon C): 8.10 pg/cell
- evidence for permeability of SGC or SGD (Calu-3 monolayer [4]): Neither by applying the isolated compounds nor the extracts MA60 and MA21, any evidence for the permeability of SGC or SGD was detectable
- permeability across intact Calu-3 monolayers (Calu-3 monolayer [4]): no measurable permeability
- pKa ([5]; read-out: pKa 1): 2.64 ± 0.69
- pKa ([5]; read-out: pKa 2): 5.2 ± 0.8
- pKa ([5]; read-out: pKa 3): 6.74 ± 0.14
- pKa ([5]; read-out: pKa 4): 7.97 ± 0.06
- pKa ([5]; read-out: pKa 5): 9 ± 0.04
- pKa ([5]; read-out: pKa 6): 9.84 ± 0.05
- pKa ([5]; read-out: pKa 7): 10.7 ± 0.02
- pKa ([5]; read-out: pKa 8): 12.05 ± 0.07
- solubility thermodynamic at 24 h ([6]; HCl buffer, pH 1.2, simulated gastric fluid): 4.47 µg/mL (≈ 6.31 µM)
- solubility thermodynamic at 24 h ([6]; acetate buffer, pH 4.5, aqueous buffer): 8.53 µg/mL (≈ 12 µM)
- pH 1.2 solubility ([6]; compound within extract MA21, pH 1.2): < LOQ
- pH 4.5 solubility ([6]; compound within extract MA21, pH 4.5): < LOQ
- pH 6.8 solubility ([6]; compound within extract MA21, pH 6.8): 4.05 µg/mL
- pH 7.4 solubility ([6]; compound within extract MA21, pH 7.4): 3.24 µg/mL
- pH 1.2 solubility ([6]; compound within extract MA60, pH 1.2): 6.88 µg/mL
- pH 4.5 solubility ([6]; compound within extract MA60, pH 4.5): < LOQ
- pH 6.8 solubility ([6]; compound within extract MA60, pH 6.8): 12.7 µg/mL
- pH 7.4 solubility ([6]; compound within extract MA60, pH 7.4): 13.6 µg/mL
- solubility thermodynamic at 24 h ([6]; phosphate buffer, pH 6.8, aqueous buffer): 18.5 µg/mL (≈ 26.1 µM)
- solubility thermodynamic at 24 h ([6]; phosphate buffer, pH 7.4, aqueous buffer): 47.1 µg/mL (≈ 66.5 µM)

Molecule: C[C@H]1[C@H](NC(=O)/C(=N\OC(C)(C)C(=O)O)c2csc(N)n2)C(=O)N1S(=O)(=O)O [aztreonam]
- Papp [7]: 0.07 ± 0.02 × 10^−6 cm/s

Molecule: O=C1OC2(c3ccc(O)cc3Oc3cc(O)ccc32)c2ccccc21 [fluorescein]
- fluorescein permeation across Calu-3 monolayer (Calu-3 monolayer [8]): no fluorescein permeation was detected

Molecule: NC[C@H]1O[C@H](O[C@H]2[C@H](O)[C@@H](O[C@H]3O[C@H](CO)[C@@H](O)[C@H](N)[C@H]3O)[C@H](N)C[C@@H]2N)[C@H](N)C[C@@H]1O [tobramycin]
- Papp [7]: < 5e-08 cm/s

Molecule: colistin
- Papp [7]: 0.04 ± 0.02 × 10^−6 cm/s
